Values joined by “and” are separate entries in the source; they are usually repeats but may differ in a detail not shown here. Equal entries are not always repeated. Active and inactive are the calls of the source. The rule behind the calls is not given here.
Test system: rodent lifetime carcinogenesis bioassay, tumor incidence TD50
Assay: chronic cancer bioassays in animals – CPDB, compiled studies (AID 1745844)

Work on `O=C1CCc2ccccc2O1` yielded a TD50 (mouse, strain B6C3F1, females, by gavage, site: all sites, lesion: hemangioma + hemangiosarcoma, dosed 103 weeks, study length 104 weeks) of 4810 mg/kg/day, a TD50 (mouse, strain B6C3F1, females, by gavage, site: all sites, lesion: hemangiosarcoma, dosed 103 weeks, study length 104 weeks) of 6140 mg/kg/day and a TD50 (mouse, strain B6C3F1, females, by gavage, site: any site (literature study), lesion: several types, types named in the paper, dosed 103 weeks, study length 104 weeks) of 541 mg/kg/day. The TD50 (mouse, strain B6C3F1, females, by gavage, site: liver, lesion: hepatocellular adenoma + hepatoblastoma + hepatocellular carcinoma, dosed 103 weeks, study length 104 weeks) was 723 mg/kg/day, the TD50 (mouse, strain B6C3F1, females, by gavage, site: liver, lesion: hepatocellular adenoma + hepatocellular carcinoma, dosed 103 weeks, study length 104 weeks) was 723 mg/kg/day and the TD50 (mouse, strain B6C3F1, females, by gavage, site: liver, lesion: hepatocellular adenoma, dosed 103 weeks, study length 104 weeks) was 790 mg/kg/day. The TD50 (mouse, strain B6C3F1, females, by gavage, site: lung, lesion: alveolar/bronchiolar adenoma + alveolar/bronchiolar carcinoma, dosed 103 weeks, study length 104 weeks) was 96100 mg/kg/day, the TD50 (mouse, strain B6C3F1, males, by gavage, site: all sites, lesion: histiocytic sarcoma + malignant lymphoma, histiocytic type + malignant lymphoma, lymphocytic type + malignant lymphoma, dosed 103 weeks, study length 104 weeks) was 3320 mg/kg/day and the TD50 (mouse, strain B6C3F1, males, by gavage, site: all sites, lesion: malignant lymphoma, histiocytic type + malignant lymphoma, mixed type + malignant lymphoma, lymphocytic type + malignant lymph, dosed 103 weeks, study length 104 weeks) was 3780 mg/kg/day (inactive). It also gave a TD50 (mouse, strain B6C3F1, males, by gavage, site: any site (literature study), lesion: several types, types named in the paper, dosed 103 weeks, study length 104 weeks) of 1400 mg/kg/day, a TD50 (mouse, strain B6C3F1, males, by gavage, site: liver, lesion: hepatocellular adenoma + hepatoblastoma + hepatocellular carcinoma, dosed 103 weeks, study length 104 weeks) of 2890 mg/kg/day and a TD50 (mouse, strain B6C3F1, males, by gavage, site: lung, lesion: alveolar/bronchiolar adenoma + alveolar/bronchiolar carcinoma, dosed 103 weeks, study length 104 weeks) of 3260 mg/kg/day. For the same compound, the TD50 (mouse, strain B6C3F1, males, by gavage, site: lung, lesion: alveolar/bronchiolar adenoma, dosed 103 weeks, study length 104 weeks) was 596 mg/kg/day, the TD50 (rat, strain Fischer 344, females, by gavage, site: adrenal medulla, lesion: pheochromocytoma benign, bilateral + pheochromocytoma, benign, dosed 103 weeks, study length 104 weeks) was 538 mg/kg/day (inactive) and the TD50 (rat, strain Fischer 344, females, by gavage, site: any site (literature study), lesion: several types, types named in the paper, dosed 103 weeks, study length 104 weeks) was 3180 mg/kg/day. The TD50 (rat, strain Fischer 344, males, by gavage, site: any site (literature study), lesion: several types, types named in the paper, dosed 38 weeks, study length 104 weeks) was 1370 mg/kg/day, the TD50 (rat, strain Fischer 344, males, by gavage, site: any site (literature study), lesion: several types, types named in the paper, dosed 64 weeks, study length 104 weeks) was 186 mg/kg/day and the TD50 (rat, strain Fischer 344, males, by gavage, site: any site (literature study), lesion: several types, types named in the paper, dosed 103 weeks, study length 104 weeks) was 143 mg/kg/day. For the same compound, the TD50 (rat, strain Fischer 344, males, by gavage, site: kidney, lesion: transitional-cell carcinoma, dosed 103 weeks, study length 104 weeks) was 11800 mg/kg/day, the TD50 (rat, strain Fischer 344, males, by gavage, site: kidney, lesion: tubule adenoma, dosed 38 weeks, study length 104 weeks) was 310 mg/kg/day and the TD50 (rat, strain Fischer 344, males, by gavage, site: kidney, lesion: tubule adenoma, dosed 64 weeks, study length 104 weeks) was 408 mg/kg/day. For the same compound, the TD50 (rat, strain Fischer 344, males, by gavage, site: kidney, lesion: tubule adenoma, dosed 103 weeks, study length 104 weeks) was 3870 mg/kg/day and 2970 mg/kg/day, the TD50 (rat, strain Fischer 344, males, by gavage, site: liver, lesion: hepatocellular adenoma + hepatoblastoma + hepatocellular carcinoma, dosed 38 weeks, study length 104 weeks) was 819 mg/kg/day and the TD50 (rat, strain Fischer 344, males, by gavage, site: liver, lesion: hepatocellular adenoma + hepatoblastoma + hepatocellular carcinoma, dosed 103 weeks, study length 104 weeks) was 1380 mg/kg/day. The TD50 (rat, strain Fischer 344, males, by gavage, site: skin, lesion: basal-cell adenoma + keratoacanthoma + squamous-cell papilloma, dosed 64 weeks, study length 104 weeks) was 258 mg/kg/day, the TD50 (rat, strain Fischer 344, males, by gavage, site: skin, lesion: basal-cell adenoma, dosed 64 weeks, study length 104 weeks) was 378 mg/kg/day and the TD50 (rat, strain Fischer 344, males, by gavage, site: skin, lesion: fibroma, dosed 64 weeks, study length 104 weeks) was 403 mg/kg/day. The TD50 (rat, strain Fischer 344, males, by gavage, site: testis, lesion: interstitial-cell adenoma, dosed 64 weeks, study length 104 weeks) was 51.7 mg/kg/day and the TD50 (rat, strain Fischer 344, males, by gavage, site: testis, lesion: interstitial-cell adenoma, dosed 103 weeks, study length 104 weeks) was 70.6 mg/kg/day.

`CCCCN(CCCC)N=O` was tested, and the TD50 (mouse, strain ICR/Jcl, males, in feed, site: esophagus, lesion: papilloma, dosed 52 weeks, study length 65 weeks) was 11.9 mg/kg/day, the TD50 (mouse, strain ICR/Jcl, males, in feed, site: forestomach, lesion: several types, types named in the paper, dosed 52 weeks, study length 65 weeks) was 0.686 mg/kg/day and the TD50 (mouse, strain ICR/Jcl, males, in feed, site: forestomach, lesion: squamous-cell carcinoma, dosed 52 weeks, study length 65 weeks) was 1.09 mg/kg/day. It also gave a TD50 (mouse, strain ICR/Jcl, males, in feed, site: forestomach, lesion: squamous-cell papilloma, dosed 52 weeks, study length 65 weeks) of 7.69 mg/kg/day, a TD50 (mouse, strain ICR/Jcl, males, in feed, site: liver, lesion: adenoma, dosed 52 weeks, study length 65 weeks) of 4.34 mg/kg/day and a TD50 (mouse, strain ICR/Jcl, males, in feed, site: liver, lesion: several types, types named in the paper, dosed 52 weeks, study length 65 weeks) of 2.65 mg/kg/day. For the same compound, the TD50 (mouse, strain ICR/Jcl, males, in feed, site: lung, lesion: adenoma, dosed 52 weeks, study length 65 weeks) was 8 mg/kg/day, the TD50 (rat, strain Fischer 344, males, by gavage, site: forestomach, lesion: carcinoma, dosed 30 weeks, study length 108 weeks) was 0.914 mg/kg/day and the TD50 (rat, strain Fischer 344, males, by gavage, site: liver, lesion: hepatocellular carcinoma, dosed 30 weeks, study length 108 weeks) was 0.691 mg/kg/day. It also gave a TD50 (rat, strain Fischer 344, males, by gavage, site: lung, lesion: carcinoma, dosed 30 weeks, study length 108 weeks) of 1.16 mg/kg/day and a TD50 (rat, strain Fischer 344, males, by gavage, site: urinary bladder, lesion: transitional-cell carcinoma, dosed 30 weeks, study length 108 weeks) of 1.47 mg/kg/day.

Reference: PubChem BioAssay AID1745844 (Carcinogenic Potency Database (CPDB), 2022)
